Columns and labels:
HaCaT cells = assay: Non-cancerous human epidermal HaCaT cells, 2D rigid dishes and 3D soft fibrin gels; format: cell-based; conditions: for HaCaT cell numbers on 2D rigid plastic / HaCaT colony growth in 3D soft fibrin gel: 10 μM; for HaCaT colony growth in 3D soft fibrin gel: day 7; for Inhibitory effects towards non-cancerous HaCaT cells: 2D rigid dishes and 3D soft fibrin gels
Experimental: Supplementary Figure 21. WYC-209 has less inhibitory effects on non-cancerous human epidermal cell line HaCaT. (a) Non-cancerous human epidermal HaCaT cells were seeded into 3D soft fibrin gel and treated with 0.1, 1, or 10 μM of WYC-209, WYC-209A, or WYC-209B on day 0, and colony sizes were quantified on day 7.
Bright field images were representative images of colonies on day 7. Scale bars, 50 μm. (b) Quantitation of cell numbers per view field of HaCaT cells plated on 2D rigid plastic. Cell nucleus were stained with DAPI. None: medium only; DMSO: medium containing 0.1% DMSO. Mean ± s.e.m.; n= 5 samples; 3 separate experiments; * P<0.05, *** P<0.001 (Student’s t-test). Note that even at 10 μM concentration no […]
compounds have less inhibitory effects on these non-cancerous human epidermal […]
(§1) (1 picture or pasted object on this page, not shown here)

[1] = tested on: TRCs of A2780, A549, MCF-7, MDA-MB-435s, A375; assay: Colony growth of TRCs of five human cancer cell lines (summary statements); format: cell-based
Experimental: Salmon fibrinogen and thrombin were purchased from Reagent Proteins (CA, USA). 3D fibrin gels were prepared as described previously[5],[6]. In brief, fibrinogen was diluted into 2 mg mL^−1 with T7 buffer (pH 7.4, 50 mM Tris, 150 mM NaCl). Cells were detached from 2D rigid dishes and cell density was adjusted to 10^4 cells per mL. Fibrinogen and cell solution mixture were made by mixing the same volume of fibrinogen solution and cell solution, resulting in 1 mg mL^−1 fibrinogen and 5000 cells per mL in the mixture fibrin gels. A volume of 50 μL cell/fibrinogen mixture was seeded into each well of 96-well plate and mixed well with pre-added 1 μL thrombin (100 U mL^−1). The cell culture plate was then incubated in 37 °C cell culture incubator for 10 min. Finally, 200 μL of DMEM medium containing 10% FBS and antibiotics was added.
Control B16-F1, A2780, A549, MCF-7, MDA-MB-435s, and A375 cells were cultured in 90-Pa fibrin gels to form round colonies and then treated with 0.1, 1, and 10 μM WYC-209, WYC-209A, and WYC-209B or 0.1% DMSO on day 3, which was washed out with pre-warmed PBS on day 4 with fresh medium, and then kept culturing till day 7 or day 9.

B16-F1 TRCs [2] = assay: Cell cycle analysis (BrdU flow cytometry), S phase of TRCs; format: cell-based, murine; conditions: 10 μM, 24 hours
Experimental: For Annexin-V and PI staining to quantify cell apoptosis, treated TRCs were isolated from 3D fibrin gel by using 5 mg mL^−1 Dispase II (Sigma), cells were labeled with FITC-conjugated Annexin-V and PI according to the manufacturer’s instruction (Biolegend). Data were acquired on a BD Cantoll (BD biosciences) and analyzed with FlowJo software. For BrdU staining to quantify cell proliferation, cells were labeled with FITC-conjugated anti-BrdU antibody according to the manufacturer’s instruction (FITC BrdU Flow Kit, BD Biosciences) and then data were acquired on an Accuri C6 (BD Biosciences) and analyzed with BD Accuri C6 software.
Supplementary Figure 13. WYC-209 blocks S phase of TRCs. Different cancer cell lines cultured in 3D soft fibrin gel on day 0, then treated with 0.1, 1, or 10 μM WYC-209, WYC-209A, WYC-209B on day 4, isolated cells after 24 hours and labeled with FITC-conjugated anti-BrdU antibody for cell cycle analysis, 10 μM ATRA and Tazarotne as positive controls. (a) Representative images of flow cytometry in different conditions. (b) Quantification of S phase ratio in different conditions. Mean ± s.e.m.; n=3 independent experiments; * P<0.05; ** P<0.01; *** P<0.001 (Student’s t-test).
as §1

[3] = tested on: cleaved (active) caspase-3 and PARP; assay: Western blotting of cleaved caspase-3 and PARP; format: cell-based, murine; conditions: 10 μM, 24 h
Excerpt: To quantify the expression levels of RARα, RARβ, RARγ, caspase-3, cleaved caspase-3, and cleaved PARP, cells were lysed with RIPA lysis buffer. […] Primary antibodies were detected with mouse anti-Rabbit IgG-HRP (1:1000, Santa Cruz, sc-2357), donkey anti-goat IgG-HRP (1:1000, Santa Cruze, sc-2020), or anti-Mouse IgG-HRP (1:1000, Santa Cruz, sc-2005).
Supplementary Figure 37. WYC-209 induces cleaved caspase-3 and PARP expressions.
(a) Representative images of cleaved PARP and cleaved caspase-3 protein expressions in control B16-F1 cells cultured on 2D rigid dishes and treated 0.1% DMSO, 1 or 10 µM WYC-209, WYC-209A or WYC-209B for 24 h. (b) Representative images of cleaved PARP and cleaved caspase-3 protein expression of control B16-F1 cells seeded in 3D soft fibrin gels for […]
hours. (c, d) Quantification of expression levels of cleaved PARP and cleaved caspase-3 in (a). (e, f) Quantification of expression levels of cleaved PARP and cleaved caspase-3 in (b).
All values are normalized by GAPDH. Mean ± s.e.m.; 3 separate experiments; ns, not […]
as §1

B16-F1 TRCs [4] = assay: Colony growth of B16-F1 TRCs in 90-Pa 3D soft fibrin gels; format: cell-based, murine; conditions: for IC50 lower / potency higher than that of Tazarotene: B16-F1 TRC growth; for inhibition at 10 µM / IC50: Mus musculus; for inhibition at 10 µM: B16-F1, 10 μM, treated on day 0, day 5; for IC50: B16-F1 in 90-Pa fibrin gels, treated on day 0, colony size on day 5; for Growth after re-plating into new soft fibrin gels without compound: washed out
[5] = pretreated with 10 µM, at least 5 days

| Compound | HaCaT cell numbers on 2D rigid plastic (HaCaT cells) | HaCaT colony growth in 3D soft fibrin gel (HaCaT cells) | Inhibitory effects towards non-cancerous HaCaT cells (HaCaT cells) | Colony growth after washout and re-plating ([1]; pretreated at 10 μM) | Colony growth after washout and re-plating ([1]; pretreated at 0.1 or 1 μM) | Decrease of S phase of TRCs (B16-F1 TRCs [2]) | Cleaved (active) caspase-3 and PARP [3] | IC50 lower / potency higher than that of Tazarotene (B16-F1 TRCs [4]) | inhibition at 10 µM (B16-F1 TRCs [4]) | IC50 (B16-F1 TRCs [4]) | Growth after re-plating into new soft fibrin gels without compound (B16-F1 TRCs [4]; [5]) | Growth after re-plating into new soft fibrin gels without compound (B16-F1 TRCs [4]; pretreated with 0.1 or 1 μM) | IC50 ([1]; Homo sapiens, 0 h, treated on day 0, read-out: IC50 (range over five human TRC types)) | inhibition at 10 µM ([1]; Homo sapiens, 10 μM, read-out: Growth inhibition of all human TRCs) | TRC growth after drug washout ([1]; treated day 3, washed out day 4, 5 days after washout) | Duration of effect after washout (long-lasting) (B16-F1 TRCs [4]; melanoma TRCs re-plated in fresh medium without compound) |
| --- | --- | --- | --- | --- | --- | --- | --- | --- | --- | --- | --- | --- | --- | --- | --- | --- |
| CCOC(=O)c1cnc(C#Cc2ccc3c(c2)C(C)(C)CC[S@@+]3[O-])nc1 [WYC-209B] | no reduction in cell numbers | still some colony growth | much less inhibitory effects | completely inhibited | partially inhibited | completely abolished S phase | increase | about 10 fold | 100% | 220 nM | none of the cells grew at all | some tumor cell growth | – | – | – | – |
| CCOC(=O)c1cnc(C#Cc2ccc3c(c2)C(C)(C)CC[S@+]3[O-])nc1 [WYC-209A] | no reduction in cell numbers | still some colony growth | much less inhibitory effects | completely inhibited | partially inhibited | completely abolished S phase | increase | about 10 fold | 100% | 150 nM | none of the cells grew at all | some tumor cell growth | – | – | – | – |
| CCOC(=O)c1cnc(C#Cc2ccc3c(c2)C(C)(C)CC[S+]3[O-])nc1 (stereo not shown) [WYC-209] | no reduction in cell numbers | still some colony growth | much less inhibitory effects | completely inhibited | partially inhibited | completely abolished S phase | increase | about 10 fold | 100% | 190 nM | none of the cells grew at all | some tumor cell growth | 100 to 520 nM | 100% | failed to resume growth | > 5 days |
